The results in this text go back to ChEMBL document CHEMBL2331354, “Spirocyclic replacements for the isatin in the highly selective, muscarinic M1 PAM ML137: the continued optimization of an MLPCN probe molecule” (Bioorg Med Chem Lett, 2013).

In experiment [1] the target is T1, Muscarinic acetylcholine receptor M1 (Homo sapiens) (UniProt P11229).
T1 sequence (whole entry): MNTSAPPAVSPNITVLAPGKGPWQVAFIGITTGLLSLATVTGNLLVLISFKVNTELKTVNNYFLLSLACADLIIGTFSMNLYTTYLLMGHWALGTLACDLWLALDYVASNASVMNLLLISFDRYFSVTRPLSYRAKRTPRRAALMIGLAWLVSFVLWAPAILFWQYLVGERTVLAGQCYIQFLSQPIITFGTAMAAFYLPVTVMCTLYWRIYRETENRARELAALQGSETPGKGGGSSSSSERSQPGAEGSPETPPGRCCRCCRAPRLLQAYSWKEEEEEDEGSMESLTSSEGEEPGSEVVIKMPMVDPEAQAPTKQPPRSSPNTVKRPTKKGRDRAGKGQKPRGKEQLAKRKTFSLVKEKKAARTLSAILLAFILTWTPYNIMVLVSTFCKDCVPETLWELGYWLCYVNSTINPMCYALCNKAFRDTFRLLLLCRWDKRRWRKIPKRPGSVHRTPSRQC
The experiment can be described thus: Positive allosteric modulation of human muscarinic M1 receptor assessed as leftward fold shift of acetylcholine-induced response at 30 uM relative to acetylcholine.

For experiment [2], the target named is T2, Muscarinic acetylcholine receptor M1 (Homo sapiens, UniProt P11229).
T2 sequence (P11229 whole entry): T1 sequence (whole entry)
Description: Positive allosteric modulation of human muscarinic M1 receptor.

For experiment [3], the target named is T1, Muscarinic acetylcholine receptor M1 (Homo sapiens). Description: Positive allosteric modulation of human muscarinic M1 receptor relative to acetylcholine.
For experiment [4] the target is unchanged. Description: Positive allosteric modulation of human muscarinic M1 receptor at 30 uM.

Activity calls are given as the source filed them. The calls are words filed in the database; no cut-off is given here. Bounds are passed on as bounds.

For the molecule `Cn1cc(-c2ccc(CN3C(=O)C4(CCN(c5ncccn5)C4)c4ccccc43)c(F)c2)cn1` (racemic), the fold change (FC) in experiment [1] amounted to 17.4. In experiment [2], the midpoint of the response, the EC50, lay at 2.5 µM. Also, the Emax in experiment [3] came out at 64%.
In experiment [2], `Cn1cc(-c2cc(F)c(CN3C(=O)C4(CCN(C5CCCC5)C4)c4ccccc43)c(F)c2)cn1` (stereo not drawn) registered an EC50 of 2.6 µM. In addition, the Emax in experiment [3] was 66%.
Take `Cn1cc(-c2cc(F)c(CN3C(=O)C4(CCN(C5CCCC5)C4)c4ccccc43)cc2F)cn1` (stereo not drawn): it took 4.1 µM to reach a half-maximal effect in experiment [2] (EC50). This molecule registered an Emax in experiment [3] of 51%.
As to `CN1CCC2(C1)C(=O)N(Cc1ccc(-c3cnn(C)c3)cc1F)c1ccccc12` (single isomer, unassigned) [listing 1 of 2 here], the fold change (FC) in experiment [1] worked out at 7.2. This molecule had an Emax in experiment [3] of 50%.
As for `Cc1nn(C)c(C)c1-c1ccc(CN2C(=O)C3(CCN(C4CCCC4)C3)c3ccccc32)c(F)c1` (stereo not drawn), the result in experiment [4] was inactive.
`CN1CCC2(CC1)C(=O)N(Cc1ccc(-c3cnn(C)c3)cc1F)c1ccccc12`: in experiment [2], the EC50 came to 3.8 µM. This molecule also displayed an Emax in experiment [3] of 49%.
The molecule `Cn1cc(-c2ccc(CN3C(=O)C4(CCN(C5CCC5)C4)c4ccccc43)c(F)c2)cn1` (racemic) returned a concentration giving a half-maximal response (EC50) in experiment [2] of over 10 µM. The Emax in experiment [3] was found to be 48%.
As for `Cn1cc(-c2ccc(CN3C(=O)C4(CCN(C5CCCC5)C4)c4ccccc43)c(F)c2)c(C(F)(F)F)n1` (stereo not drawn), the result in experiment [4] was inactive.
Still for that read-out and setting: the result for `Cc1c(-c2ccc(CN3C(=O)C4(CCN(C5CCCC5)C4)c4ccccc43)c(F)c2)cnn1C` (stereo not drawn) reads “inactive”.
For `Cn1cc(-c2ccc(CN3C(=O)C4(CCN(CCF)C4)c4ccccc43)c(F)c2)cn1` (racemic), in experiment [1], the fold change (FC) amounted to 13.5. For the same molecule, in experiment [2], the EC50 stood at 4.1 µM. This molecule also showed an Emax in experiment [3] of 60%.
The corresponding values for `Cn1cc(-c2ccc(CN3C(=O)C4(CCN(CC(F)F)C4)c4ccccc43)c(F)c2)cn1` (racemic) are 5.9, over 10 µM and 52%.
`Cn1cc(-c2ccc(CN3C(=O)C4(CCN(C5CCCC5)C4)c4ccccc43)c(F)c2)cn1` (single isomer, unassigned; 19h): the Emax in experiment [3] came out at 33%.
Regarding `Cn1cc(-c2ccc(CN3C(=O)C4(CCN(C5CCCC5)C4)c4ccccc43)c(F)c2)cn1` (racemic) [listing 1 of 2 here], in experiment [2], it took 3.1 µM to reach a half-maximal effect (EC50).
As to `Cn1cc(-c2ccc(CN3C(=O)C4(CCN(S(C)(=O)=O)C4)c4ccccc43)c(F)c2)cn1` (racemic), in experiment [2], the EC50 is over 10 µM. Besides, the Emax in experiment [3] worked out at 41%.
In the case of `Cn1cc(-c2ccc(CN3C(=O)C4(CCN(C5CCCC5)C4)c4ccccc43)c(F)c2F)cn1` (stereo not drawn), the EC50 in experiment [2] was over 10 µM. The molecule also gave a maximum response (Emax) in experiment [3] of 43%.
As for `Cn1cc(-c2ccc(CN3C(=O)C4(CCN(CC(F)(F)F)C4)c4ccccc43)c(F)c2)cn1` (racemic), the result in experiment [4] was inactive.
On to `O=C1N(Cc2ccc(Br)cc2)c2ccccc2C12CCCO2` (stereo not drawn), for which the outcome in experiment [4] was inactive.
In turn, `Cn1cc(-c2ccc(CN3C(=O)C4(CCCO4)c4ccccc43)cc2)cn1` (stereo not drawn) gave a half-maximal effective concentration (EC50) in experiment [2] of over 10 µM. In experiment [3], this molecule registered an Emax of 43%.
Take `Cn1cc(-c2ccc(CN3C(=O)C4(OCCO4)c4ccccc43)c(F)c2)cn1`: in experiment [1], the fold change (FC) turned out to be 27. The molecule also registered an EC50 in experiment [2] of 2 µM. The molecule further gave an Emax in experiment [3] of 62%.
Molecule `Cn1cc(-c2ccc(CN3C(=O)C4(CCN(C5CCCCC5)C4)c4ccccc43)c(F)c2)cn1` (racemic) showed an EC50 in experiment [2] of 5.2 µM. In experiment [3], this molecule yielded an Emax of 60%.
In the case of `C[Si](C)(C)C1COC2(C1)C(=O)N(Cc1ccc(Br)cc1)c1ccccc12` (stereo not drawn), the outcome in experiment [4] was inactive.
In the case of `CN1CCCC12C(=O)N(Cc1ccc(-c3cnn(C)c3)cc1)c1ccccc12` (stereo not drawn), the EC50 in experiment [2] was over 10 µM. The Emax in experiment [3] was determined as 53%.
In the case of `CN1CCC2(C1)C(=O)N(Cc1ccc(-c3cnn(C)c3)cc1F)c1ccccc12` (stereo in doubt; 19a) [listing 1 of 2 here], the fold change (FC) in experiment [1] worked out at 21. The molecule also yielded an Emax in experiment [3] of 67%.
The molecule `Cn1cc(-c2ccc(CN3C(=O)C4(CCN(C(=O)C5CCCCC5)C4)c4ccccc43)c(F)c2)cn1` (racemic) registered an EC50 in experiment [2] of 5 µM. In addition, the Emax in experiment [3] was 50%.
On to `CCN1CCC2(C1)C(=O)N(Cc1ccc(-c3cnn(C)c3)cc1F)c1ccccc12` (racemic), for which, in experiment [1], the fold change (FC) was found to be 8.3. For the same molecule, in experiment [2], the EC50 came out at 3.2 µM. In addition, the Emax in experiment [3] was 59%.
For the molecule `Cn1cc(-c2ccc(CN3C(=O)C4(CCN(c5ccccc5)C4)c4ccccc43)c(F)c2)cn1` (racemic), in experiment [4], the result was inactive.
`CN1CCC2(CCN(Cc3ccc(-c4cnn(C)c4)cc3F)C2=O)C1` (stereo not drawn) had an EC50 in experiment [2] of over 10 µM. Also, the Emax in experiment [3] turned out to be 28%.
Molecule `Cn1cc(-c2ccc(CN3C(=O)C4(CCN(C5CCCC5)C4)c4ccccc43)c(F)c2)cn1` (single isomer, unassigned; 19g) [listing 1 of 2 here] yielded an EC50 in experiment [2] of 1.6 µM.
With `Cn1cc(-c2ccc(CN3C(=O)C4(CCNC4)c4ccccc43)c(F)c2)cn1` (stereo not drawn), the result in experiment [4] was inactive.
In the case of `Cn1cc(-c2ccc(CN3C(=O)C4(CCN(C5CCCC5)C4)c4ccccc43)c(F)c2)cn1` (single isomer, unassigned; 19g) [listing 2 of 2 here], the fold change (FC) in experiment [1] turned out to be 28. Moreover, in experiment [3], the Emax amounted to 69%.
Regarding `Cn1cc(-c2ccc(CN3C(=O)C(=O)c4ccccc43)c(F)c2)cn1`, in experiment [1], the fold change (FC) is 2.7. The molecule also had a pEC50 in experiment [2] of 6.22. The Emax in experiment [3] is 45%.
Consider `Cn1cc(-c2ccc(CN3C(=O)C4(CCN(C5CCCC5)C4)c4ccccc43)cc2)cn1` (stereo not drawn), for which, in experiment [2], the midpoint of the response, the EC50, lay at 1.8 µM. This molecule also registered an Emax in experiment [3] of 44%.
Regarding `Cn1cc(-c2ccc(CN3CC4(OCCO4)c4ccccc43)c(F)c2)cn1`, the EC50 in experiment [2] was over 10 µM. The Emax in experiment [3] came out at 43%.
As for `Cn1cc(-c2ccc(CN3C(=O)C4(CCN(C5CCCCCC5)C4)c4ccccc43)c(F)c2)cn1` (racemic), the EC50 in experiment [2] was 7.5 µM. This molecule showed an Emax in experiment [3] of 50%.
Consider `CN1CCC2(C1)C(=O)N(Cc1ccc(-c3cnn(C)c3)cc1F)c1ccccc12` (stereo in doubt; 18d) [listing 1 of 2 here], for which the Emax in experiment [3] amounted to 65%.
On to `CC(=O)N1CCC2(C1)C(=O)N(Cc1ccc(-c3cnn(C)c3)cc1F)c1ccccc12` (racemic), for which the EC50 in experiment [2] was over 10 µM. Also, the Emax in experiment [3] stood at 41%.
Take `CN1CCCC12C(=O)N(Cc1ccc(Br)cc1)c1ccccc12` (stereo not drawn): the outcome in experiment [4] was inactive.
For the molecule `Cc1nn(C)cc1-c1ccc(CN2C(=O)C3(CCN(C4CCCC4)C3)c3ccccc32)c(F)c1` (stereo not drawn), the EC50 in experiment [2] turned out to be 3 µM. Besides, the Emax in experiment [3] was determined as 41%.
Turning to `CC(C)N1CCC2(C1)C(=O)N(Cc1ccc(-c3cnn(C)c3)cc1F)c1ccccc12` (racemic), the EC50 in experiment [2] was over 10 µM. In experiment [3], the Emax was 30%.
For `Cn1cc(-c2ccc(CN3C(=O)C4(CCN(C(=O)OC(C)(C)C)C4)c4ccccc43)c(F)c2)cn1` (racemic), the result in experiment [4] was inactive.
`Cn1cc(-c2ccc(CN3C(=O)C4(CCN(C(=O)C5CCC5)C4)c4ccccc43)c(F)c2)cn1` (racemic) gave a concentration giving a half-maximal response (EC50) in experiment [2] of 6.3 µM. The molecule also had a maximum response (Emax) in experiment [3] of 45%.
The molecule `CN1CCC2(C1)C(=O)N(Cc1ccc(-c3cnn(C)c3)cc1F)c1ccccc12` (stereo in doubt; 18d) [listing 2 of 2 here] displayed an EC50 in experiment [2] of 3.2 µM.
As to `Cn1cc(-c2ccc(CN3C(=O)C4(CCN(C5CCCC5)C4)c4ccccc43)cc2F)cn1` (stereo not drawn), the EC50 in experiment [2] turned out to be 2 µM. The Emax in experiment [3] turned out to be 28%.
The corresponding values for `Cn1cc(-c2ccc(CN3C(=O)C4(CCNCC4)c4ccccc43)c(F)c2)cn1` are over 10 µM and 29%.
In experiment [2], `CN1CCC2(C1)C(=O)N(Cc1ccc(-c3cnn(C)c3)cc1F)c1ccccc12` (stereo in doubt; 19a) [listing 2 of 2 here] had an EC50 of 2.9 µM.
Take `O=C1N(Cc2ccc(Br)cc2)c2ccccc2C12CCCN2` (stereo not drawn): the outcome in experiment [4] was inactive.
As to `Cn1cc(-c2ccc(CN3C(=O)C4(CCN(C5CCCC5)C4)c4ccccc43)c(F)c2)cn1` (racemic) [listing 2 of 2 here], the Emax in experiment [3] turned out to be 57%.
The molecule `CN1CCC2(C1)C(=O)N(Cc1ccc(-c3cnn(C)c3)cc1F)c1ccccc12` (single isomer, unassigned) [listing 2 of 2 here] gave an EC50 in experiment [2] of 2.9 µM.
